EC50 and IC50 data for five compounds are collected here from patent US8653305B2, “Compound having S1P receptor binding potency and use thereof” (Ono Pharmaceutical Co., Ltd., priority 2004, dated 2014).

For one assay, the target named is T1, Human EDG-1 (Homo sapiens, UniProt P21453).
T1 construct: expressed in transfected cells; host or cells: CHO cells
Kind of assay: Agonistic activity against EDG by monitoring changes in intracellular calcium ion [Ca^2+]i concentration. The assay is classed as cell-based. Conditions: Human EDG-1 overexpressing CHO cells; Fura2-AM; control 100 nM S1P; read-out: EC50 of agonistic activity against EDG-1 (increase ratio of intracellular calcium ion concentration). The method, then:
Evaluation of an Agonistic Activity Against EDG of the Compound of the Present Invention by Monitoring Changes in Intracellular Calcium Ion [Ca^2+]i Concentration
Human EDG-1, EDG-3, EDG-5 or EDG-8 gene overexpressing CHO cells were cultured in Ham's F12 medium (manufactured by GIBCO BRL) containing 10% FBS (fetal bovine serum), penicillin/streptomycin and blasticidin (5 μg/ml). The cultured cells were incubated in a 5 μM Fura2-AM solution (Ham's F12 medium containing 10% of FBS, 20 mM HEPES buffer (pH7.4), and 2.5 mM probenecid) at 37° C. for 60 minutes. After washing once with Hanks solution containing 20 mM HEPES buffer (pH7.4), and 2.5 mM probenecid, the plate was soaked in the same solution until assay. Then, the plate was set on a fluorescent drug screening system (FDSS 6000; Hamamatsu Photonics) and the intracellular calcium ion concentration was measured without stimulation for 30 seconds. A test compound (final concentration: 1 nM to 10 μM, dimethylsulfoxide (DMSO) solution) was added and S1P (final concentration: 100 nM) was added 5 minutes thereafter. Then, the increase in the intracellular calcium ion concentration was measured before and after the addition of S1P at intervals of 3 seconds (excitation wavelength: 340 nm and 380 nm, fluorescence wavelength: 500 nm). […]
In general terms: A change in cytosolic calcium serves as a functional read-out for many receptors and channels.

For another assay, the target named is T2, EDG-6 (Homo sapiens, UniProt O95977).
T2 construct: expressed in transfected cells; host or cells: Chinese Hamster Ovary (CHO) cells, membrane fraction
T2 sequence (O95977 1-384): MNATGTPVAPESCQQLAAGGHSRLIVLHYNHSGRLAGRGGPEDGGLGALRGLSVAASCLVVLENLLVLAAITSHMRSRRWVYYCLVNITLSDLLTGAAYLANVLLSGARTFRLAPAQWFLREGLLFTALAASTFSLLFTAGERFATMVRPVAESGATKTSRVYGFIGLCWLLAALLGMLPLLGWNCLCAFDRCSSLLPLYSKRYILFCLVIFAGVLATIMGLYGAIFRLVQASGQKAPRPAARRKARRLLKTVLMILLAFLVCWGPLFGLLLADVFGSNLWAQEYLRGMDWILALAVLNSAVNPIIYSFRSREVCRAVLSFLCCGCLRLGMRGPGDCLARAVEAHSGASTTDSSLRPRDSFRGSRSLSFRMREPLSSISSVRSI
The experiment in a line: Inhibitory activity on binding of [^3H]-PhS1P to EDG-6. The following applies: cell membrane fraction of EDG-6-overexpressing CHO cell; 10 nmol/L [^3H]-PhS1P solution; read-out: IC50 of inhibition of binding of [^3H]-PhS1P to EDG-6. As for the experimental part:
Measurement of Inhibitory Activity of the Compound of the Present Invention on Binding of [^3H]-PhS1P to EDG-6
By using cell membrane fraction of an EDG-6-overexpressing Chinese Hamster Ovary (CHO) cell and 1 mg protein/mL of the membrane fraction, reaction was carried out in a 96-well plate. Into each well, 80 μL of a vehicle (DMSO) solution diluted with 2× binding buffer (100 mmol/L Tris pH 7.5, 200 mM NaCl, 30 mM NaF, 1% BSA) or a ligand solution having a twice higher concentration and 40 μL of 10 nmol/L [^3H]-PhS1P (5,5,6,6,-[…] phytosphingosine 1-phosphate: This was prepared in the following manner. A compound (anti-7-tert-butyl (4S)-4-[(1S,2R)-1-(benzyloxy)-2-hydroxyhexadec-3-yn-1-yl]-2,2-dimethyl-1,3-oxazolizine-3-carboxylate) prepared in accordance with a method reported in a document (Tetrahedron Lett., 38(34), 6027-6030 (1997)) was reacted with benzyl bromide in tetrahydrofuran in the presence of potassium hexamethyldisilylamide to thereby protect the hydroxy group of the compound. Then, it was treated in hydrogen chloride/methanol solution to remove an acetonide group. The compound thus obtained was reacted with N,N-diethyl-1,5-dihydro-2,4,3-benzodioxaphosphepin-3-amine in dichloromethane in the presence of tetrazole and then oxidized with m-chloroperbenzoic acid. Then, it was reacted in the presence of ASCA-2 catalyst (manufactured by NE Chemcat, 4.5% palladium-0.5% platinum catalyst carried on active carbon, see, Fine Chemical, Oct. 1, 2002, pages 5 to 14) in methanol under a tritium atmosphere. The obtained compound was treated with a 4 N hydrogen chloride/1,4-dioxane solution in dichloromethane to thereby obtain the desired compound) were added. Further, 40 μl of the membrane fraction solution was added and reacted at room temperature for 60 minutes. […] Then, 50 μl/well of Micro Scint 20 was added and the plate was covered with Top Seal-P. Then the radioactivity was measured with Top Count (Perkin Elmer).

As usually defined, the IC50 is the concentration that gives 50% inhibition.

T1 sequence (P21453 whole entry): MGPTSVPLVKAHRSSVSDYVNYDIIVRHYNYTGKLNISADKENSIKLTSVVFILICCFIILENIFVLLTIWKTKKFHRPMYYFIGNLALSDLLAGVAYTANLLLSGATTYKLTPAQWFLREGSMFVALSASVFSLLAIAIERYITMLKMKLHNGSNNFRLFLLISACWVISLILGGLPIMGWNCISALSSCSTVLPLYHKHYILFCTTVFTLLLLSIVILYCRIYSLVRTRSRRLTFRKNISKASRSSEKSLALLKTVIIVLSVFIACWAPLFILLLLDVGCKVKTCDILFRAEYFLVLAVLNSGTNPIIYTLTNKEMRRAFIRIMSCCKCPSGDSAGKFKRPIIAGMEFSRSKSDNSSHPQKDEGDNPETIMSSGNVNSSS

As to `c1ccc(CCCCOc2ccc3cc(CN4CCCCC4)ccc3c2)cc1` [Example 5, 1-{[6-(4-phenylbutoxy)-2-naphthyl]methyl}piperidine], on Human EDG-1, the EC50 came to 7.8 µM.
On the same count and under the same terms, the figure for `O=C(NS(=O)(=O)c1ccccc1)C1CN(Cc2ccc3cc(OCCCc4ccccc4)ccc3c2)C1` [Example 6] is 0.25 µM.
Regarding `CCNCC1=C(C)c2ccc(OCC(C)Cc3ccc(F)cc3)cc2CC1` (centres unmarked) [Example 27, N-({6-[3-(4-fluorophenyl)-2-methylpropoxy]-1-methyl-3,4-dihydro-2-naphthalenyl}methyl)ethanamine], the IC50 at EDG-6 is 0.026 µM.
On the same count and under the same terms, under `COc1cc(CC(C)C)ccc1COc1ccc2c(c1)CCC(CN1CC(CO)C1)=C2C` [Example 37-1, [1-({6-[(4-isobutyl-2-methoxybenzyl)oxy]-1-methyl-3,4-dihydro-2-naphthalenyl}methyl)-3-azetidinyl]methanol] stands 0.098 µM; under `COc1cc(CC(C)C)ccc1COc1ccc2c(c1)CCC(CN1CCN(c3ccccn3)CC1)=C2C` [Example 66-24, 1-({6-[(4-isobutyl-2-methoxybenzyl)oxy]-1-methyl-3,4-dihydro-2-naphthalenyl}methyl)-4-(2-pyridinyl)piperazine], 0.081 µM.
